# In article PMC5578959, “Selective LRRK2 kinase inhibition reduces phosphorylation of endogenous Rab10 and Rab12 in human peripheral mononuclear blood cells” (Scientific Reports, 2017):
# How the values were obtained:
# Test in all cases: KiNativ profiling in human PBMCs
# Assay type in all cases: binding
# MAP2K6 = tested on: T1, MAP2K6
# T1 construct: purchased ActivX Technologies (KiNativ)
# Method in brief: (§1)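 Compound was applied to living PBMCs at 0.1 µM or 1 µM. Occupancy of kinases was then assessed by KiNativ.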
# BTK = tested on: T2, BTK; conditions: Activation Loop
# T2 construct: purchased ActivX Technologies (KiNativ)
# Method in brief: as §1
# Wnk1,Wnk2,Wnk4 = conditions: Activation Loop
# Method in brief: as §1
# p70S6K = tested on: T3, p70S6K; conditions: Lys2
# T3 construct: purchased ActivX Technologies (KiNativ)
# Method in brief: as §1
# PITSLRE = tested on: T4, PITSLRE; conditions: Lys2
# T4 construct: purchased ActivX Technologies (KiNativ)
# Method in brief: as §1
# MAP3K2 = tested on: T5, MAP3K2; conditions: Lys1
# T5 construct: purchased ActivX Technologies (KiNativ)
# Method in brief: as §1
# TAK1 = tested on: T6, TAK1; conditions: Lys2
# T6 construct: purchased ActivX Technologies (KiNativ)
# Method in brief: as §1
# RSK1 domain1 = tested on: T7, RSK1 domain1
# T7 construct: RSK1 domain1; purchased ActivX Technologies (KiNativ)
# Method in brief: as §1
# DGKA = tested on: T8, DGKA; conditions: ATP
# T8 construct: purchased ActivX Technologies (KiNativ)
# Method in brief: as §1
# DNAPK = tested on: T9, DNAPK; conditions: ATP
# T9 construct: purchased ActivX Technologies (KiNativ)
# Method in brief: as §1
# SYK = tested on: T10, SYK
# T10 construct: purchased ActivX Technologies (KiNativ)
# Method in brief: as §1
# p38a = tested on: T11, p38a
# T11 construct: purchased ActivX Technologies (KiNativ)
# Method in brief: as §1
# PFTAIRE1 = tested on: T12, PFTAIRE1; conditions: Lys1
# T12 construct: purchased ActivX Technologies (KiNativ)
# Method in brief: as §1
# LATS2 = tested on: T13, LATS2; conditions: Lys2
# T13 construct: purchased ActivX Technologies (KiNativ)
# Method in brief: as §1
# SLK = tested on: T14, SLK
# T14 construct: purchased ActivX Technologies (KiNativ)
# Method in brief: as §1
# Wnk1,Wnk2 = conditions: ATP Loop
# Method in brief: as §1
# CDK7 = tested on: T15, CDK7
# T15 construct: purchased ActivX Technologies (KiNativ)
# Method in brief: as §1
# PRPK = tested on: T16, PRPK; conditions: ATP Loop
# T16 construct: purchased ActivX Technologies (KiNativ)
# Method in brief: as §1
# RSKL1 domain1 = tested on: T17, RSKL1 domain1; conditions: Protein Kinase Domain
# T17 construct: RSKL1 domain1; purchased ActivX Technologies (KiNativ)
# Method in brief: as §1
# PI4KB = tested on: T18, PI4KB; conditions: ATP
# T18 construct: purchased ActivX Technologies (KiNativ)
# Method in brief: as §1
# MARK2 = tested on: T19, MARK2; conditions: Lys1
# T19 construct: purchased ActivX Technologies (KiNativ)
# Method in brief: as §1
# GPRK6 = tested on: T20, GPRK6; conditions: Lys2
# T20 construct: purchased ActivX Technologies (KiNativ)
# Method in brief: as §1
# MAP2K1,MAP2K2 = conditions: Lys2
# Method in brief: as §1
# JAK1 domain2 = tested on: T21, JAK1 domain2
# T21 construct: JAK1 domain2; purchased ActivX Technologies (KiNativ)
# Method in brief: as §1
# HPK1 = tested on: T22, HPK1
# T22 construct: purchased ActivX Technologies (KiNativ)
# Method in brief: as §1
# TLK1 = tested on: T23, TLK1
# T23 construct: purchased ActivX Technologies (KiNativ)
# Method in brief: as §1
# CDK11,CDK8 = conditions: Lys2
# Method in brief: as §1
# PIP5K3 = tested on: T24, PIP5K3; conditions: ATP
# T24 construct: purchased ActivX Technologies (KiNativ)
# Method in brief: as §1
# MAP3K5 = tested on: T25, MAP3K5; conditions: Lys2
# T25 construct: purchased ActivX Technologies (KiNativ)
# Method in brief: as §1
# JNK1,JNK2,JNK3 = conditions: Lys2
# Method in brief: as §1
# NDR1 = tested on: T26, NDR1
# T26 construct: purchased ActivX Technologies (KiNativ)
# Method in brief: as §1
# AKT1 = tested on: T27, AKT1; conditions: ATP Loop
# T27 construct: purchased ActivX Technologies (KiNativ)
# Method in brief: as §1
# ZAK = tested on: T28, ZAK; conditions: Lys1
# T28 construct: purchased ActivX Technologies (KiNativ)
# Method in brief: as §1
# HCK = tested on: T29, HCK; conditions: Activation Loop
# T29 construct: purchased ActivX Technologies (KiNativ)
# Method in brief: as §1
smiles,measurement,setting,value
Cc1cccc(-c2cc(Nc3ccn(C)n3)nc3[nH]cc(C#N)c23)c1 [Lu AF58786],Inhibition,"MAP2K6; 0.1µM, Lys1",2.0%
same,Inhibition,"MAP2K6; 0.1µM, Lys2",5.6%
same,Inhibition,"MAP2K6; 1µM, Lys1",2.8%
same,Inhibition,"MAP2K6; 1µM, Lys2",-7.5%
same,Inhibition,BTK; 0.1µM,25.8%
same,Inhibition,BTK; 1µM,9.5%
same,Inhibition,"Wnk1,Wnk2,Wnk4; 0.1µM",0.9%
same,Inhibition,"Wnk1,Wnk2,Wnk4; 1µM",-6.6%
same,Inhibition,p70S6K; 0.1µM,-7.6%
same,Inhibition,p70S6K; 1µM,-5.7%
same,Inhibition,PITSLRE; 0.1µM,2.7%
same,Inhibition,PITSLRE; 1µM,-9.8%
same,Inhibition,MAP3K2; 0.1µM,26.8%
same,Inhibition,MAP3K2; 1µM,18.5%
same,Inhibition,TAK1; 0.1µM,21.8%
same,Inhibition,TAK1; 1µM,-11.4%
same,Inhibition,"RSK1 domain1; 0.1µM, Activation Loop",8.7%
same,Inhibition,"RSK1 domain1; 0.1µM, Lys2",-0.654%
same,Inhibition,"RSK1 domain1; 1µM, Activation Loop",18.4%
same,Inhibition,"RSK1 domain1; 1µM, Lys2",12.8%
same,Inhibition,DGKA; 0.1µM,1.1%
same,Inhibition,DGKA; 1µM,-1.9%
same,Inhibition,"DNAPK; 0.1 µM, EHPFLVKGGEDLR",19.6%
same,Inhibition,"DNAPK; 0.1 µM, KGGSWIQEINVAEK",-21.8%
same,Inhibition,"DNAPK; 1 µM, KGGSWIQEINVAEK",2.3%
same,Inhibition,"SYK; 0.1µM, Activation Loop",8.3%
same,Inhibition,"SYK; 0.1µM, Lys1",12.8%
same,Inhibition,"SYK; 1µM, Lys1",-5.9%
same,Inhibition,"p38a; 0.1µM, Lys2",0.7%
same,Inhibition,"p38a; 0.1 µM, Other",-1.7%
same,Inhibition,"p38a; 1µM, Lys2",-4.6%
same,Inhibition,"p38a; 1 µM, Other",-7.7%
same,Inhibition,PFTAIRE1; 0.1µM,5.8%
same,Inhibition,PFTAIRE1; 1µM,-10.2%
same,Inhibition,LATS2; 0.1µM,9.3%
same,Inhibition,LATS2; 1µM,-1.5%
same,Inhibition,"SLK; 0.1µM, Lys1",-13.3%
same,Inhibition,"SLK; 0.1µM, Lys2",8.0%
same,Inhibition,"SLK; 1µM, Lys1",25.5%
same,Inhibition,"SLK; 1µM, Lys2",-7.2%
same,Inhibition,"Wnk1,Wnk2; 0.1µM",12.8%
same,Inhibition,"Wnk1,Wnk2; 1µM",3.9%
same,Inhibition,"CDK7; 0.1µM, Lys1",3.7%
same,Inhibition,"CDK7; 0.1µM, Lys2",9.8%
same,Inhibition,"CDK7; 1µM, Lys1",-0.256%
same,Inhibition,"CDK7; 1µM, Lys2",18.0%
same,Inhibition,PRPK; 0.1µM,1.0%
same,Inhibition,PRPK; 1µM,8.9%
same,Inhibition,RSKL1 domain1; 0.1µM,15.2%
same,Inhibition,RSKL1 domain1; 1µM,1.9%
same,Inhibition,PI4KB; 0.1µM,15.3%
same,Inhibition,PI4KB; 1µM,6.2%
same,Inhibition,MARK2; 0.1µM,-6.2%
same,Inhibition,MARK2; 1µM,-21.2%
same,Inhibition,GPRK6; 0.1µM,-65.0%
same,Inhibition,GPRK6; 1µM,-34.1%
same,Inhibition,"MAP2K1,MAP2K2; 0.1 µM, DVKPSNILVNSR",4.0%
same,Inhibition,"MAP2K1,MAP2K2; 1 µM, DVKPSNILVNSR",1.8%
same,Inhibition,"MAP2K1,MAP2K2; 1 µM, IMHRDVKPSNILVNSR",14.1%
same,Inhibition,"JAK1 domain2; 0.1µM, Activation Loop",0.9%
same,Inhibition,"JAK1 domain2; 0.1µM, Lys1",-25.0%
same,Inhibition,"JAK1 domain2; 1µM, Activation Loop",-39.0%
same,Inhibition,"JAK1 domain2; 1µM, Lys1",-35.1%
same,Inhibition,"HPK1; 0.1µM, Lys2",13.0%
same,Inhibition,"HPK1; 1µM, Lys1",8.1%
same,Inhibition,"HPK1; 1µM, Lys2",21.1%
same,Inhibition,"TLK1; 0.1µM, Lys1",2.2%
same,Inhibition,"TLK1; 0.1µM, Lys2",16.2%
same,Inhibition,"TLK1; 1µM, Lys1",15.4%
same,Inhibition,"TLK1; 1µM, Lys2",4.7%
same,Inhibition,"CDK11,CDK8; 0.1µM",-20.3%
same,Inhibition,"CDK11,CDK8; 1µM",-2.0%
same,Inhibition,PIP5K3; 0.1µM,-2.2%
same,Inhibition,PIP5K3; 1µM,4.2%
same,Inhibition,MAP3K5; 0.1µM,4.3%
same,Inhibition,MAP3K5; 1µM,-3.2%
same,Inhibition,"JNK1,JNK2,JNK3; 0.1µM",30.2%
same,Inhibition,"JNK1,JNK2,JNK3; 1µM",71.2%
same,Inhibition,"NDR1; 0.1µM, Lys1",0.33%
same,Inhibition,"NDR1; 0.1µM, Lys2",16.5%
same,Inhibition,"NDR1; 1µM, Lys1",-11.0%
same,Inhibition,"NDR1; 1µM, Lys2",0.751%
same,Inhibition,AKT1; 0.1µM,7.0%
same,Inhibition,AKT1; 1µM,-7.5%
same,Inhibition,ZAK; 0.1µM,18.8%
same,Inhibition,ZAK; 1µM,11.6%
same,Inhibition,HCK; 0.1µM,-0.451%
same,Inhibition,HCK; 1µM,-12.8%
